In ChEMBL document CHEMBL1201862, “PubChem BioAssay data set” (2004):
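Results reflect a 48-hour exposure of cells in 96-well plates to compound at five concentrations. At the GI50, growth is halved.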 The source made the active and inactive calls. No stated cut-off is given here; in the data, active = GI50 up to about 1.1 µM and inactive = higher.

Experiments:
Test in all cases: DTP human tumour cell line panel, 48 h
COLO 205 = tested on: COLO 205
EKVX = tested on: EKVX
HOP-92 = tested on: HOP-92
Malme-3M = tested on: Malme-3M
NCI-H23 = tested on: NCI-H23
OVCAR-8 = tested on: OVCAR-8
RXF 393 = tested on: RXF 393
SK-MEL-28 = tested on: SK-MEL-28
SK-OV-3 = tested on: SK-OV-3
SR = tested on: SR
SW-620 = tested on: SW-620
UO-31 = tested on: UO-31
NCI-H226 = tested on: NCI-H226
SK-MEL-2 = tested on: SK-MEL-2
UACC-257 = tested on: UACC-257

Measured: GI50

Cc1nn2c3c(nnc2c1C#N)C(=O)NN=C(N)S3
inactive: COLO 205 > 100 µM | EKVX > 100 µM | HOP-92 > 100 µM | Malme-3M > 100 µM | NCI-H23 > 100 µM | OVCAR-8 > 100 µM | RXF 393 > 100 µM | SK-MEL-28 > 100 µM | SK-OV-3 > 100 µM | SR > 100 µM | SW-620 > 100 µM | UO-31 > 100 µM

O=C(CSc1nnc(-c2ccc(/N=C\c3ccc(Cl)cc3)cc2)o1)Nc1ccccc1[N+](=O)[O-]
inactive: COLO 205 > 100 µM | EKVX > 100 µM | Malme-3M > 100 µM | NCI-H226 > 100 µM | NCI-H23 > 100 µM | OVCAR-8 > 100 µM | RXF 393 94.6 µM | SK-MEL-28 > 100 µM | SK-MEL-2 > 100 µM | SK-OV-3 > 100 µM | SR > 100 µM | SW-620 > 100 µM | UACC-257 > 100 µM | UO-31 > 100 µM

O=C(Nc1nnc(S)[nH]1)C(=O)C(c1cnc2ccc([N+](=O)[O-])cc2n1)[N+](=O)[O-] (stereo not given)
inactive: COLO 205 > 100 µM | EKVX > 100 µM | HOP-92 > 100 µM | Malme-3M > 100 µM | NCI-H226 > 100 µM | NCI-H23 > 100 µM | OVCAR-8 > 100 µM | RXF 393 > 100 µM | SK-MEL-28 > 100 µM | SK-OV-3 > 100 µM | SR > 100 µM | SW-620 > 100 µM | UACC-257 > 100 µM | UO-31 > 100 µM

C1=C(c2ccccc2)CN(c2ccccc2)OC1
inactive: COLO 205 > 100 µM | EKVX 86.9 µM | Malme-3M > 100 µM | NCI-H226 > 100 µM | NCI-H23 89.7 µM | RXF 393 33.5 µM | SK-MEL-28 79.8 µM | SK-MEL-2 50.6 µM | SK-OV-3 > 100 µM | SR 55.3 µM | SW-620 > 100 µM | UO-31 32.2 µM

CCCCCCCCCCCC(=O)OCC1OC(n2cc(F)c(=O)[nH]c2=O)C(N)C(OC(=O)CCCCCCCCCCC)C1O (stereo not given)
inactive: COLO 205 68.4 µM | EKVX > 100 µM | HOP-92 36.2 µM | Malme-3M > 100 µM | NCI-H23 > 100 µM | OVCAR-8 93.1 µM | RXF 393 > 100 µM | SK-MEL-28 > 100 µM | SK-MEL-2 > 100 µM | SK-OV-3 > 100 µM | SR 34.4 µM | SW-620 68.4 µM | UACC-257 > 100 µM | UO-31 > 100 µM

N#C/C(c1nc2ccccc2[nH]1)=c1\s/c(=C/c2ccc(Cl)cc2)c(=O)n1-c1ccccc1
inactive: COLO 205 > 100 µM | EKVX > 100 µM | HOP-92 > 100 µM | Malme-3M > 100 µM | NCI-H226 > 100 µM | NCI-H23 > 100 µM | OVCAR-8 > 100 µM | SK-MEL-28 > 100 µM | SK-MEL-2 > 100 µM | SK-OV-3 > 100 µM | SR > 100 µM | SW-620 > 100 µM | UACC-257 > 100 µM | UO-31 > 100 µM

NC(=O)N/N=C(\CCC(=O)N(Cc1ccccc1)Cc1ccccc1)CC(=O)c1ccc(F)cc1
inactive: COLO 205 > 100 µM | EKVX > 100 µM | Malme-3M > 100 µM | NCI-H226 > 100 µM | NCI-H23 > 100 µM | OVCAR-8 > 100 µM | RXF 393 31.6 µM | SK-MEL-28 > 100 µM | SK-MEL-2 > 100 µM | SK-OV-3 > 100 µM | SR > 100 µM | SW-620 > 100 µM | UACC-257 > 100 µM | UO-31 > 100 µM

CCOC(=O)/C(Br)=C1\OC(=O)c2ccccc2-c2ccccc21
inactive: COLO 205 20.8 µM | EKVX > 100 µM | HOP-92 24.3 µM | Malme-3M 47.2 µM | NCI-H226 23.4 µM | NCI-H23 57.8 µM | OVCAR-8 49.8 µM | SK-MEL-28 61.4 µM | SK-MEL-2 64 µM | SK-OV-3 34 µM | SR 22 µM | SW-620 42.5 µM | UACC-257 58.5 µM | UO-31 38.7 µM

CCC(/C(=N/NC(=O)C[N+](C)(C)C)c1ccccc1)C1OC(=O)c2ccccc21 (stereo not given)
inactive: COLO 205 > 100 µM | HOP-92 > 100 µM | Malme-3M > 100 µM | NCI-H226 > 100 µM | NCI-H23 > 100 µM | OVCAR-8 > 100 µM | RXF 393 > 100 µM | SK-MEL-28 > 100 µM | SK-OV-3 > 100 µM | SR > 100 µM | SW-620 > 100 µM | UACC-257 > 100 µM | UO-31 > 100 µM

O=C(O)CSc1nnc(-c2ccc(O)cc2)[nH]1
inactive: COLO 205 > 100 µM | EKVX > 100 µM | HOP-92 > 100 µM | Malme-3M > 100 µM | NCI-H226 > 100 µM | NCI-H23 > 100 µM | OVCAR-8 > 100 µM | SK-MEL-28 > 100 µM | SK-MEL-2 > 100 µM | SK-OV-3 > 100 µM | SR > 100 µM | SW-620 > 100 µM | UACC-257 > 100 µM | UO-31 > 100 µM
